Data: article PMC5787524, “Discovery of a FLT3 inhibitor LDD1937 as an anti-leukemic agent for acute myeloid leukemia” (Oncotarget, 2017)
Where “and” joins values, the source holds several entries; their conditions need not be identical. Equal values may be shown once.

Columns and labels:
MV-4-11 cells = test: Cell viability / growth inhibition (EZ-Cytox), MV-4-11; assay type: cell-based, human; settings: 72 h; called IC50 in supplementary text
Experimental: The cultured cells were incubated at 37°C with 5% CO2. Cell viability was assessed with a tetrazolium-based assay using the EZ-Cytox Cell Viability Assay kit (DaeilLab, Korea). Briefly, 2,000 ∼ 15,000 cells were plated in 96-well flat bottom plates in 100 µl of medium. The next day, the cells were treated with compounds along with dimethyl sulfoxide (DMSO, Fisher, Waltham, MA, USA) as a negative control. […] After incubation, the optical density (OD) was measured at a wavelength of 450 nm with a Victor multilabel reader (Perkin Elmer, Waltham, MA, USA).

FLT3 = molecular target: T1, FLT3 (Homo sapiens, UniProt P36888); test: In vitro FLT3 kinase assay (HTRF); assay type: biochemical; settings: recombinant FLT3, HTRF; read-out: IC50 FLT3 kinase activity
T1 construct: Recombinant proteins containing the FLT3 kinase domain were purchased from Carna biosciences (Japan); purchased Carna biosciences (Japan)
T1 sequence (P36888 610-943 limits assumed): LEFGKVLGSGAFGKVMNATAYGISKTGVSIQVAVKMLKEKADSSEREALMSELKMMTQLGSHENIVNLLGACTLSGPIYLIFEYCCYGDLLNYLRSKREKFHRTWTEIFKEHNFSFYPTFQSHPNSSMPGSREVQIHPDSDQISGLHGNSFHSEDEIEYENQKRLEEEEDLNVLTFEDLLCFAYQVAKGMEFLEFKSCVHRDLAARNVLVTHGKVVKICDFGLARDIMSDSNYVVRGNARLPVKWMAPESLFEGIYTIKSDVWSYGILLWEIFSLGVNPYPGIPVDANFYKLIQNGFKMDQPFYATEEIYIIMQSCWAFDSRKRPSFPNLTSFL
Experimental: The inhibition of the FLT3 kinase activity was measured with homogeneous, time-resolved fluorescence (HTRF) assays. Recombinant proteins containing the FLT3 kinase domain were purchased from Carna biosciences (Japan). Optimal enzyme, ATP, and substrate concentrations were established with the HTRF KinEASE kit (Cisbio, France) according to the manufacturer’s instructions. The FLT3 enzymes were mixed with serially diluted compounds and peptide substrates in a kinase reaction buffer (50 mM HEPES (pH 7.0), 500 μM ATP, 0.1 mM sodium orthovanadate, 5 mM MgCl2, 1 mM DTT, 0.01% bovine serum albumin (BSA), and 0.02% NaN3). After the addition of the reagents for detection, the TR-FRET signal was measured with a Victor multilabel reader (Perkin Elmer, Waltham, MA, USA). […] JAK2, JAK3, cMET, and RET in vitro kinase assays were also carried out using the HTRF assay kit.

[1] = test system: FLT3, VEGFR1/2, PDGFRβ, and PKCα/β/γ; set-up: method as in PMID 10888033; settings: read-out: IC50s against kinases including FLT3, VEGFR1/2, PDGFRβ, and PKCα/β/γ; cited from earlier work
[2] = Pharmacokinetics in mice (intravenous and oral); assay type: in vivo, ICR mice; settings: for AUC1940/AUC1937 / AUC / Ae0–24 h / Cmax / GI24 h / Terminal half-life / Tmax: mice
Experimental: The protocols for the animal studies were approved by the Institute of Laboratory Animal Resources of Dongguk University, Seoul, South Korea (IACUC-2015-055-1). Five-week-old male Imprinting Control Region (ICR) mice were purchased from the Charles River Company Korea (Orient, Seoul, South Korea). Upon arrival, the animals were randomized and housed four per cage under strictly controlled environmental conditions (22-25°C and 48-52% relative humidity) with a 12 h light/dark cycle at an intensity of 150 to 300 Lux. All mice were provided food and water ad libitum and were then maintained during this study. In the intravenous study of LDD1937, 10 mg/kg of LDD1937 (dissolved in distilled water at a concentration of 2 mg/ml) were intravenously injected into the mice through the tail vein. A blood sample of approximately 0.12 ml was collected by cardiac puncture. Additionally, in the oral study of LDD1937, 10 mg/kg of LDD1937 (dissolved in the same solution used in the intravenous study) were orally administered to the mice. The analysis of LDD1937 and LDD1940, a metabolite of LDD1937, in biological samples was done with LC-MS/MS using the Waters UPLC-XEVO TQ system (Waters Corporation, Milford, CT, USA). […]1940, and carbamazepine (an internal standard, IS) were ionized in the multiple reaction monitoring mode with an ESI interface for positive ions ([M+H]^+). The turbo ion-spray interface was operated at an ion capillary voltage of 3.0 kV with a desolvation gas flow of 650 l/h and a cone gas flow of 10 l/h at 350°C. […] Separation was done on a reverse-phase C18 column (BEH, […]; Waters, Ireland) with a mobile phase, distilled water containing 0.1% formic acid and acetonitrile, at 30°C. After measuring the concentrations of the LDD1937 and LDD1940, standard methods were used to calculate the pharmacokinetic parameters using a non-compartmental analysis (WinNonlin 2.1; […] Corp., Mountain View, CA, USA).

[3] = metabolite LDD1940 after 10 mg/kg LDD1937 intravenous
[4] = metabolite LDD1940 after 10 mg/kg LDD1937 oral

Row | SMILES | GI50 (MV-4-11 cells) [nM] | IC50 (FLT3) | also measured
1 | COC(=O)c1ccc2c(c1)/C(=C1/Nc3ccccc3/C1=N\OCCN1CCN(C)CC1)C(=O)N2 [Compound 5] | 11 ± 1.5 | 10.8 ± 2.02 nM | 
2 | O=C1Nc2ccc(C(=O)O)cc2/C1=C1/Nc2ccccc2/C1=N\O [Compound 7] | > 1000 |  | GI50 MV-4-11 (MV-4-11 cells): lack of an anti-proliferative activity
3 | COC(=O)c1ccc2c(c1)/C(=C1/Nc3ccccc3/C1=N\OCCN)C(=O)N2 [Compound 3] | 15 ± 3 | 4.5 ± 0.75 nM | 
4 | NCCO/N=C1/C(=C2/C(=O)Nc3ccc(C(=O)O)cc32)Nc2ccccc21 [Compound 9] | 150 ± 33 | 3.3 ± 0.11 nM | 
5 | CN1CCN(CCO/N=C2/C(=C3/C(=O)Nc4ccc(C(=O)O)cc43)Nc3ccccc32)CC1 [Compound 11] | 176 ± 51 | 3.3 ± 0.6 nM | 
6 | COC(=O)c1ccc2c(c1)/C(=C1/Nc3ccccc3/C1=N\OCCN1CCOCC1)C(=O)N2 [Compound 6] | 53 ± 11 | 253 ± 81.4 nM | 
7 | O=C1Nc2ccc(C(=O)O)cc2/C1=C1/Nc2ccccc2/C1=N\OCCBr [Compound 8] | 340 ± 81 | 12.9 ± 0.97 nM | 
9 | O=C1Nc2ccc(C(=O)O)cc2/C1=C1/Nc2ccccc2/C1=N\OCCN1CCOCC1 [Compound 12] | > 1000 | 7.55 ± 1.01 nM | 
10 | Cl.Cl.O=C1Nc2ccc(C(=O)O)cc2/C1=C1/Nc2ccccc2/C1=N\OCCN1CCNCC1 [LDD1940] | 40 | 2.45 nM and 2.5 nM | AUC1940/AUC1937 ([2]; after 10 mg/kg LDD1937 intravenous): 42.7 ± 9.44%; AUC1940/AUC1937 ([2]; after 10 mg/kg LDD1937 oral): 65.3 ± 16.8%; Tmax of LDD1940 ([2]; after intravenous and oral administration of LDD1937, mice (span over both routes)): 1∼15 min; AUC [2, 3]: 54.6 ± 0.592 µg·min/mL; Ae0–24 h [2, 3]: 0.868 ± 0.0333 % of dose; Cmax [2, 3]: 1450 ± 694 µg/mL; GI24 h [2, 3]: 0.719 ± 0.0556 % of dose; Terminal half-life [2, 3]: 2.37 ± 2.02 h; Tmax [2, 3]: 1 (1–1) min; AUC [2, 4]: 1.84 ± 0.0741 µg·min/mL; Ae0–24 h [2, 4]: 0.0787 ± 0.0791 % of dose; Cmax [2, 4]: 8.17 ± 2.44 µg/mL; GI24 h [2, 4]: 0.792 ± 1.09 % of dose; Terminal half-life [2, 4]: 12.4 ± 2.15 h; Tmax [2, 4]: 15 (15–120) min
11 | COC(=O)c1ccc2c(c1)/C(=C1/Nc3ccccc3/C1=N\OCCBr)C(=O)N2 [Compound 2] | 51 ± 11 | 19.2 ± 1.88 nM | 
